{"source": "patent US20200289552A1", "about": "“SOLID COMPOSITION COMPRISING IODINE AGENT AND SODIUM CHLORIDE HAVING IMPROVED WATER SOLUBILITY, AND ANTIVIRAL AND ANTIMICROBIAL COMPOSITION FOR EYE, ORAL CAVITY, NASAL CAVITY OR INHALATION CONTAINING AQUEOUS SOLUTION THEREOF” (FLUCHEM LTD, priority 2017, published 2020)", "origin": "cited, not measured here", "key": {"[1]": {"test_system": "highly pathogenic H5N1 and low pathogenic H5N3, H7N7, and H9N7"}, "[2]": {"conditions": "U.S. patent Ser. No. 04/950,653"}, "[3]": {"conditions": "stored sealed, room temperature and 65° C., for 3 years"}}}
{"substance": "povidone iodine", "values": [{"measurement": "time to inactivate viruses below a detection limit", "setting": "[1]", "value": "less than 10 seconds"}, {"measurement": "time to dissolve in water", "setting": "[2]", "value": 45, "unit": "min"}, {"measurement": "effective iodine loss", "setting": "[3]", "value": "about 0.5%"}]}
